In one experiment the test system is human α2β3γ2 GABAARs. As to the kind of experiment: In vitro electrophysiological recording assay (automated patch-clamp), α2-GABAAR relative efficacy. It is filed as cell-based. The note with it: % efficacy normalised to diazepam; GABA EC10-20; concentration generally >= 100 times Ki. Put shortly: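 Automated whole-cell patch clamp at 20-22° C on L(tk^−) cells (QPatch, −65 mV) or HEK293 cells (SyncroPatch, −80 mV) stably expressing the human receptor. Compound pre-applied ≥1 min, then co-applied with GABA EC10-20; % potentiation of leak-corrected peak current, normalised to diazepam, typically at ≥100× Ki.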
For orientation: Patch clamp records ionic current or voltage across a cell membrane.

Experiment [1] addresses human α2β3γ2 GABAARs (benzodiazepine site) (Homo sapiens (Human), UniProt P18507+P47869). Nature of the experiment: In vitro radioligand binding assay ([3H]Ro15-1788 displacement), α2-GABAAR Ki. Put shortly:
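Membranes from dexamethasone-induced mouse L(tk−) cells stably expressing the human receptor were incubated 1 h at 4° C with 4 nM [3H]Ro15-1788 and graded compound; nonspecific binding with 1-3 μM TP003. Filter-bound radioactivity counted; Ki from IC50 by Cheng-Prusoff using the measured radioligand Kd.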

Like-named read-outs stand apart in the source and are kept apart here.

human α2β3γ2 GABAARs (benzodiazepine site), sequence (P47869 29-451): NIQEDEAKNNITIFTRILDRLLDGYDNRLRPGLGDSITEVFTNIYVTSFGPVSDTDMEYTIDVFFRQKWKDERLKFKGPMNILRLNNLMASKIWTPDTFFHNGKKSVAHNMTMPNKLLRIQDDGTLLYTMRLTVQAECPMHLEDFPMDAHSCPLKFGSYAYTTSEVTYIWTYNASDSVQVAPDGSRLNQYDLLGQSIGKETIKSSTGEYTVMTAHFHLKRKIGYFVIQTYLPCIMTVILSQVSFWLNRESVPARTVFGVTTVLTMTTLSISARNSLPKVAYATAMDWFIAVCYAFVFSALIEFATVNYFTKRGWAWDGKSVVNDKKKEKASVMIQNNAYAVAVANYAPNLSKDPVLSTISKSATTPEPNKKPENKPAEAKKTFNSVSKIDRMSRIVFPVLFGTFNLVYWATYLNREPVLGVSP
human α2β3γ2 GABAARs (benzodiazepine site), sequence (P28472 26-473 partner): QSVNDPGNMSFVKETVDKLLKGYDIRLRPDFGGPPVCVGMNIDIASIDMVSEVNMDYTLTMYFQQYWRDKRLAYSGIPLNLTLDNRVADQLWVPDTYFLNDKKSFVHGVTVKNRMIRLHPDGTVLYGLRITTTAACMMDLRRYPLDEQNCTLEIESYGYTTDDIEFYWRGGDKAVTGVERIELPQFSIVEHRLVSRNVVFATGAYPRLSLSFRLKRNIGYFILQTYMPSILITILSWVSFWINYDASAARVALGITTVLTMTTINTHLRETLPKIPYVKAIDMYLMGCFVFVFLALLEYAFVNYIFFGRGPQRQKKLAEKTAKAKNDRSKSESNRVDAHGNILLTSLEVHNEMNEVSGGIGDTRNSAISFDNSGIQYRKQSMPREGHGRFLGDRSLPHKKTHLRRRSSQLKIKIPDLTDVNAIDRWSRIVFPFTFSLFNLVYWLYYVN
human α2β3γ2 GABAARs (benzodiazepine site), sequence (P18507 40-475): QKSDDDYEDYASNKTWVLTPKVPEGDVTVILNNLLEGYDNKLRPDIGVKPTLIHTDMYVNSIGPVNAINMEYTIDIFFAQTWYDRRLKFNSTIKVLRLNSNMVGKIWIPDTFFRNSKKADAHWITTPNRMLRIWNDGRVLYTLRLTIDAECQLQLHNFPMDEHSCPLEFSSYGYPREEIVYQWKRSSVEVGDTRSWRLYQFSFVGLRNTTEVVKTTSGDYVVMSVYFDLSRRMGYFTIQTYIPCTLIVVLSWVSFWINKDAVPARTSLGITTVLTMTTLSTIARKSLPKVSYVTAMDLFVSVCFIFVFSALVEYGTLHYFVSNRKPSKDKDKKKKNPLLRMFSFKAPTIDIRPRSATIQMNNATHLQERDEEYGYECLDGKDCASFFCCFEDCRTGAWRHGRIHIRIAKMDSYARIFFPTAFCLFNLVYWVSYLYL

A word on the Ki: it is the equilibrium dissociation constant of an inhibitor or competing ligand from its target. As for `CCCNC(=O)c1c(N)c2cccc(-c3cncnc3OC)c2[nH]c1=O` [Example 44, 4-Amino-8-(4-methoxypyrimidin-5-yl)-2-oxo-N-propyl-1H-quinoline-3-carboxamide], the “α2-GABAAR Relative Efficacy (vs. Diazepam)” value (from here on “α2-GABAAR Relative Efficacy”) with human α2β3γ2 GABAARs is recorded as 0.30. Moreover, the Ki in experiment [1] worked out at 18.6 nM.

As for `CCCNC(=O)c1c(N)c2cccc(-c3cc(CN4CC5(CCN(C)CC5)C4)ccc3F)c2[nH]c1=O` [Example 140, 4-Amino-8-(2-fluoro-5-((7-methyl-2,7-diazaspiro[3.5]nonan-2-yl)methyl)phenyl)-2-oxo-N-propyl-1,2-dihydroquinoline-3-carboxamide], in the experiment with human α2β3γ2 GABAARs, the “α2-GABAAR Relative Efficacy” value is 0.34. In addition, in experiment [1], the Ki was determined as 1.88 nM.

With `COc1ccncc1-c1cccc2c(N)c(C(=O)NCC3CC3)c(=O)[nH]c12` [Example 59, 4-Amino-N-(cyclopropylmethyl)-8-(4-methoxy-3-pyridyl)-2-oxo-1H-quinoline-3-carboxamide], the “α2-GABAAR Relative Efficacy” value in the experiment on human α2β3γ2 GABAARs is recorded as 0.27. The inhibitory constant (Ki) in experiment [1] was found to be 2.01 nM.

Turning to `CCCNC(=O)c1c(N)c2cccc(-c3cc(OCc4ccc(C(F)(F)F)cn4)ccc3F)c2[nH]c1=O` [Example 98, 4-Amino-8-[2-fluoro-5-[[5-(trifluoromethyl)-2-pyridyl]methoxy]phenyl]-2-oxo-N-propyl-1H-quinoline-3-carboxamide], in the experiment on human α2β3γ2 GABAARs, the “α2-GABAAR Relative Efficacy” value came to 0.29. Also, the inhibitory constant (Ki) in experiment [1] was 0.61 nM.

Consider `CCCNC(=O)c1c(N)c2cccc(-c3cc(OCc4coc(C(C)C)n4)ccc3F)c2[nH]c1=O` [Example 123, 4-Amino-8-[2-fluoro-5-[(2-isopropyloxazol-4-yl)methoxy]phenyl]-2-oxo-N-propyl-1H-quinoline-3-carboxamide], for which, in the experiment on human α2β3γ2 GABAARs, the “α2-GABAAR Relative Efficacy” value was found to be 0.2549. Besides, in experiment [1], the Ki is 1.71 nM.

Regarding `COc1ccncc1-c1cccc2c(N)c(C(=O)NCCO)c(=O)[nH]c12` [Example 64, 4-Amino-N-(2-hydroxyethyl)-8-(4-methoxy-3-pyridyl)-2-oxo-1H-quinoline-3-carboxamide], the “α2-GABAAR Relative Efficacy” value in the experiment on human α2β3γ2 GABAARs was found to be 0.34. In addition, the inhibition constant (Ki) in experiment [1] is 84.6 nM.

For `CCCNC(=O)c1c(N)c2cccc(-c3cnccc3C)c2[nH]c1=O` [Example 15, 4-Amino-8-(4-methylpyridin-3-yl)-2-oxo-N-propyl-1,2-dihydroquinoline-3-carboxamide], the “α2-GABAAR Relative Efficacy” value in the experiment on human α2β3γ2 GABAARs came out at 0.17. Also, the inhibition constant (Ki) in experiment [1] amounted to 4.09 nM.

`CCCNC(=O)c1c(N)c2cccc(-c3nc(CO)ccc3C)c2[nH]c1=O` [Example 12, 4-Amino-8-(6-(hydroxymethyl)-3-methylpyridin-2-yl)-2-oxo-N-propyl-1,2-dihydroquinoline-3-carboxamide]: in the experiment with human α2β3γ2 GABAARs, the “α2-GABAAR Relative Efficacy” value amounted to 0.38. The Ki in experiment [1] is 8.17 nM.

With `CCCNC(=O)c1c(N)c2cccc(-c3cc(OCc4cccc(OC)n4)ccc3F)c2[nH]c1=O` [Example 89, 4-Amino-8-[2-fluoro-5-[(6-methoxy-2-pyridyl)methoxy]phenyl]-2-oxo-N-propyl-1H-quinoline-3-carboxamide], the “α2-GABAAR Relative Efficacy” value in the experiment with human α2β3γ2 GABAARs is recorded as 0.3. For the same compound, the inhibition constant Ki in experiment [1] was found to be 1.55 nM.

Consider `CCCNC(=O)c1c(N)c2cccc(-c3cccc(OC)c3)c2[nH]c1=O` [Example 48, 4-Amino-8-(3-methoxyphenyl)-2-oxo-N-propyl-1H-quinoline-3-carboxamide], for which the “α2-GABAAR Relative Efficacy” value with human α2β3γ2 GABAARs was 0.39. Moreover, in experiment [1], the inhibitory constant (Ki) was determined as 1.84 nM.

Take `Cc1nn(C)cc1-c1cccc2c(N)c(C(=O)NCC(C)C)c(=O)n(C)c12` [Example 82, 4-Amino-8-(1,3-dimethylpyrazol-4-yl)-N-isobutyl-1-methyl-2-oxo-quinoline-3-carboxamide]: in the experiment with human α2β3γ2 GABAARs, the “α2-GABAAR Relative Efficacy” value stood at 0.31. For the same compound, the Ki in experiment [1] amounted to 6.66 nM.

As for `COCCNC(=O)c1c(N)c2cccc(-c3cnccc3OC)c2[nH]c1=O` [Example 63, 4-Amino-N-(2-methoxyethyl)-8-(4-methoxy-3-pyridyl)-2-oxo-1H-quinoline-3-carboxamide], the “α2-GABAAR Relative Efficacy” value with human α2β3γ2 GABAARs was 0.65. Moreover, the Ki in experiment [1] amounted to 24.5 nM.

`CCCNC(=O)c1c(N)c2cccc(-c3cc(Cc4ncn(CC)n4)ccc3F)c2[nH]c1=O` [Example 145, 4-Amino-8-(5-((1-ethyl-1H-1,2,4-triazol-3-yl)methyl)-2-fluorophenyl)-2-oxo-N-propyl-1,2-dihydroquinoline-3-carboxamide]: the “α2-GABAAR Relative Efficacy” value in the experiment with human α2β3γ2 GABAARs is on record as 0.28. Moreover, the Ki in experiment [1] is 1.29 nM.

Consider `CCCNC(=O)c1c(N)c2cccc(-c3cc(OCc4ccccn4)ccc3C)c2[nH]c1=O` [Example 86, 4-Amino-8-[2-methyl-5-(2-pyridylmethoxy)phenyl]-2-oxo-N-propyl-1H-quinoline-3-carboxamide], for which the “α2-GABAAR Relative Efficacy” value in the experiment with human α2β3γ2 GABAARs amounted to 0.28. In addition, the Ki in experiment [1] was 1.71 nM.

As for `CCCNC(=O)c1c(N)c2cccc(-c3cc(OCc4ccc(C)cn4)ccc3F)c2[nH]c1=O` [Example 95, 4-Amino-8-[2-fluoro-5-[(5-methyl-2-pyridyl)methoxy]phenyl]-2-oxo-N-propyl-1H-quinoline-3-carboxamide], the “α2-GABAAR Relative Efficacy” value with human α2β3γ2 GABAARs is reported as 0.22. The Ki in experiment [1] is 0.44 nM.

Consider `CCCNC(=O)c1c(N)c2cccc(-c3nc(COC)ccc3F)c2[nH]c1=O` [Example 10, 4-Amino-8-(3-fluoro-6-(methoxymethyl)pyridin-2-yl)-2-oxo-N-propyl-1,2-dihydroquinoline-3-carboxamide], for which the “α2-GABAAR Relative Efficacy” value in the experiment on human α2β3γ2 GABAARs was 0.22. In experiment [1], the inhibition constant Ki amounted to 1.5 nM.

For `CCCNC(=O)c1c(N)c2cccc(-c3cc(OCC4CCOCC4)ccc3F)c2[nH]c1=O` [Example 135, 4-Amino-8-[2-fluoro-5-(tetrahydropyran-4-ylmethoxy)phenyl]-2-oxo-N-propyl-1H-quinoline-3-carboxamide], in the experiment with human α2β3γ2 GABAARs, the “α2-GABAAR Relative Efficacy” value worked out at 0.20. In addition, the inhibition constant Ki in experiment [1] amounted to 0.7 nM.

Consider `Cc1nn(C)cc1-c1cccc2c(N)c(C(=O)NCC3CC3)c(=O)n(C)c12` [Example 81, 4-Amino-N-(cyclopropylmethyl)-8-(1,3-dimethylpyrazol-4-yl)-1-methyl-2-oxo-quinoline-3-carboxamide], for which, in the experiment on human α2β3γ2 GABAARs, the “α2-GABAAR Relative Efficacy” value was 0.81. In addition, the inhibition constant Ki in experiment [1] came to 2.19 nM.

For `CCCNC(=O)c1c(N)c2cccc(-c3cc(OCc4cscn4)ccc3F)c2[nH]c1=O` [Example 119, 4-Amino-8-(2-fluoro-5-(thiazol-4-ylmethoxy)phenyl)-2-oxo-N-propyl-1,2-dihydroquinoline-3-carboxamide], the “α2-GABAAR Relative Efficacy” value in the experiment with human α2β3γ2 GABAARs was determined as 0.38. The Ki in experiment [1] turned out to be 0.31 nM.

Take `CCCNC(=O)c1c(N)c2cccc(-c3cc(OCc4cc(C#N)ccn4)ccc3F)c2[nH]c1=O` [Example 101, 4-Amino-8-[5-[(4-cyano-2-pyridyl)methoxy]-2-fluoro-phenyl]-2-oxo-N-propyl-1H-quinoline-3-carboxamide]: in the experiment on human α2β3γ2 GABAARs, the “α2-GABAAR Relative Efficacy” value stood at 0.31. The Ki in experiment [1] stood at 0.19 nM.

With `CCCNC(=O)c1c(N)c2cccc(-c3cc(OCc4ccc(F)cc4C#N)ccc3F)c2[nH]c1=O` [Example 114, 4-Amino-8-[5-[(2-cyano-4-fluoro-phenyl)methoxy]-2-fluoro-phenyl]-2-oxo-N-propyl-1H-quinoline-3-carboxamide], the “α2-GABAAR Relative Efficacy” value in the experiment with human α2β3γ2 GABAARs is recorded as 0.38. Also, in experiment [1], the Ki amounted to 0.73 nM.

Regarding `CCCNC(=O)c1c(N)c2cccc(-c3cc(OCc4ccc(F)cn4)ccc3C)c2[nH]c1=O` [Example 93], in the experiment on human α2β3γ2 GABAARs, the “α2-GABAAR Relative Efficacy” value is on record as 0.34. In addition, the Ki in experiment [1] amounted to 1.63 nM.

On to `CCCNC(=O)c1c(N)c2cccc(-c3cc(OCc4ncccc4C)ccc3F)c2[nH]c1=O` [Example 103, 4-Amino-8-[2-fluoro-5-[(3-methyl-2-pyridyl)methoxy]phenyl]-2-oxo-N-propyl-1H-quinoline-3-carboxamide], for which the “α2-GABAAR Relative Efficacy” value in the experiment on human α2β3γ2 GABAARs came to 0.37. Also, in experiment [1], the inhibition constant Ki was 1.68 nM.

With `CCCNC(=O)c1c(N)c2cccc(-c3cccc(OCc4ccccn4)c3)c2[nH]c1=O` [Example 87, 4-Amino-2-oxo-N-propyl-8-[3-(2-pyridylmethoxy)phenyl]-1H-quinoline-3-carboxamide], the “α2-GABAAR Relative Efficacy” value in the experiment on human α2β3γ2 GABAARs came to 0.24. Moreover, in experiment [1], the Ki worked out at 1.78 nM.

For `CCCNC(=O)c1c(N)c2cccc(-c3cc(OCc4cccnc4C#N)ccc3F)c2[nH]c1=O` [Example 109, 4-Amino-8-[5-[(2-cyano-3-pyridyl)methoxy]-2-fluoro-phenyl]-2-oxo-N-propyl-1H-quinoline-3-carboxamide], in the experiment on human α2β3γ2 GABAARs, the “α2-GABAAR Relative Efficacy” value is on record as 0.21. The Ki in experiment [1] was 0.17 nM.

Turning to `CCCNC(=O)c1c(N)c2cccc(-c3cccc(OCc4ccc(F)cn4)c3)c2[nH]c1=O` [Example 94, 4-Amino-8-[3-[(5-fluoro-2-pyridyl)methoxy]phenyl]-2-oxo-N-propyl-1H-quinoline-3-carboxamide], the “α2-GABAAR Relative Efficacy” value with human α2β3γ2 GABAARs was determined as 0.28. Further, in experiment [1], the inhibitory constant (Ki) came out at 2.42 nM.

Consider `CCCNC(=O)c1c(N)c2cccc(-c3cnccc3OC(C)C)c2[nH]c1=O` [Example 20, 4-Amino-8-(4-isopropoxypyridin-3-yl)-2-oxo-N-propyl-1,2-dihydroquinoline-3-carboxamide], for which, in the experiment with human α2β3γ2 GABAARs, the “α2-GABAAR Relative Efficacy” value is given as 0.16. Also, in experiment [1] (L(tk-) cell membranes, 4 nM [3H]Ro15-1788, read-out: α2-GABAAR Ki), the inhibition constant (Ki) came out at 245 nM.

On to `CCCNC(=O)c1c(N)c2cccc(-c3cc(OCc4nnc(C)o4)ccc3F)c2[nH]c1=O` [Example 131, 4-Amino-8-(2-fluoro-5-((5-methyl-1,3,4-oxadiazol-2-yl)methoxy)phenyl)-2-oxo-N-propyl-1,2-dihydroquinoline-3-carboxamide], for which the “α2-GABAAR Relative Efficacy” value with human α2β3γ2 GABAARs turned out to be 0.40. Further, the Ki in experiment [1] came out at 0.3 nM.

For the origin of these results see US20250197368A1 (priority 2020, published 2025).
